Data as given in US20250213496A1, “LIPID NANOPARTICLES AND PREPARATION METHODS AND USE THEREOF” (priority 2022, published 2025).

Experiment: HPLC quantification of retinoid compound in LNP (encapsulation efficiency)
Type: physicochemical
Details: HPLC after diluting LNP with ethanol; AM80 275 nm, ATRA 350 nm
Experimental: The content of the retinoid compound in the LNP is determined by high performance liquid chromatography (HPLC), including: preparing a gradient dilution standard solution of ATRA or AM80, establishing the HPLC method, sequentially injecting 100 μL of different concentrations of the standard solution, and plotting the standard curve by using the ultraviolet absorption peak areas of different concentrations of ATRA or AM80. The five-component LNP is broken by ethanol with a volume more than 10 times the volume of the LNP, and the volume of each injection is controlled to be 100 μL; the peak area is substituted into the standard curve to obtain the content of ATRA or AM80 in the lipid solution.
Chromatographic conditions: Sunfire C18 column (150 mm×4.6 mm, 5 μm), column temperature (25° C.), mobile phase A (acetonitrile), mobile phase B (0.1 M triethylamine acetate buffer solution with a pH of 7.0), flow rate of 1.0 mL/min, and injection volume of 100 μL each time.
The standard solutions of AM80 with different concentrations were prepared with ethanol, and HPLC injection and gradient elution were performed. […] After diluting LNP with the ethanol, HPLC injection was performed, the AM80 content in the LNP solution was quantified according to the absorption peak area at 275 nm, and an encapsulation efficiency of AM80 is 45%-65%. […]

Compound	encapsulation efficiency of retinoid compound in LNP
CC1(C)CCC(C)(C)c2cc(NC(=O)c3ccc(C(=O)O)cc3)ccc21 [AM80, tamibarotene]	45%-65
CC1=C(/C=C/C(C)=C/C=C/C(C)=C/C(=O)O)C(C)(C)CCC1 [ATRA, all-trans-retinoic acid]	40%-70
